Measurements from patent publication US20230085307A1, “PYRIDAZINONE COMPOUND AND HERBICIDE” (NISSAN CHEMICAL CORPORATION, priority 2019, published 2023).

Legend:
Japanese bulrush = test: Test Example 2: herbicidal activity, application during weed generation under submerged conditions (Table 17, symbol B); assay type: in vivo, Japanese bulrush (Schoenoplectus juncoides); details: AAH 320 g/ha; application during weed generation, submerged conditions
In short: (§1)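 Herbicide emulsion, diluted with water to the chosen amount, is applied onto 4 cm floodwater over alluvial soil where the weeds were co-sown and raised at 25–30° C. Application timing: 1–2 leaves. Assessment: three weeks afterwards.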

wild oat [1] = test: Test Example 4: herbicidal effect by soil treatment (Table 19, symbol I); assay type: in vivo, wild oat (Avena fatua); details: AAH 320 g/ha
In short: (§2)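 Applied as a water-diluted emulsion, the compound was sprayed onto soil covering newly sown seeds. Evaluation came three weeks after application, in a greenhouse held at 25° C. to 30° C.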

southern crabgrass [2] = test: Test Example 5: herbicidal effect by foliage application, plastic box (Table 20, symbol F); assay type: in vivo, southern crabgrass (Digitaria ciliaris); details: foliage application, AAH 320 g/ha, three weeks after application
In short: (§3)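 Sow seeds spot-wise in sterilized diluvial soil; cover with ~1.5 cm soil. Grow 14 days in greenhouse, 25° C. to 30° C. Spray foliage with emulsion diluted to predetermined amount. Rate effect after 3 weeks.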

persian speedwell [3] = test: Test Example 5: herbicidal effect by foliage application, plastic box (Table 20, symbol R); assay type: in vivo, Persian speedwell (Veronica persica); details: foliage application, AAH 320 g/ha, three weeks after application
In short: as §3

barnyard grass [4] = test: Test Example 4: herbicidal effect by soil treatment (Table 19, symbol H); assay type: in vivo, barnyard grass (Echinochloa crus-galli); details: AAH 320 g/ha
In short: as §2

Chinese sprangletop = test: Test Example 3: herbicidal effect by foliage application, Wagner pot (Table 18, symbol D); assay type: in vivo, chinese sprangletop (Leptochloa chinensis); details: 320 g/ha
In short: (§4)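 Plants were sown in alluvial soil held under 0.1–0.5 cm standing water and grown 14 days in a greenhouse at 25–30 °C. An emulsifiable formulation, water-diluted to the set dose, was then sprayed onto the foliage, and effects were scored three weeks later using previously defined criteria.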

oval-leafed pondweed = test: Test Example 2: herbicidal activity, application during weed generation under submerged conditions (Table 17, symbol C); assay type: in vivo, oval-leafed pondweed (Monochoria vaginalis); details: AAH 320 g/ha; application during weed generation, submerged conditions
In short: as §1

chickweed [5] = test: Test Example 5: herbicidal effect by foliage application, plastic box (Table 20, symbol P); assay type: in vivo, common chickweed (Stellaria media); details: foliage application, AAH 320 g/ha, three weeks after application
In short: as §3

barnyard grass [6] = test: Test Example 5: herbicidal effect by foliage application, plastic box (Table 20, symbol H); assay type: in vivo, barnyard grass (Echinochloa crus-galli); details: foliage application, AAH 320 g/ha, three weeks after application
In short: as §3

blackgrass [7] = test: Test Example 5: herbicidal effect by foliage application, plastic box (Table 20, symbol J); assay type: in vivo, blackgrass (Alopecurus myosuroides); details: foliage application, AAH 320 g/ha, three weeks after application
In short: as §3

Italian ryegrass [8] = test: Test Example 5: herbicidal effect by foliage application, plastic box (Table 20, symbol K); assay type: in vivo, Italian ryegrass (Lolium multiflorum); details: foliage application, AAH 320 g/ha, three weeks after application
In short: as §3

green foxtail [9] = test: Test Example 4: herbicidal effect by soil treatment (Table 19, symbol G); assay type: in vivo, green foxtail (Setaria viridis); details: AAH 320 g/ha
In short: as §2

chickweed [10] = test: Test Example 4: herbicidal effect by soil treatment (Table 19, symbol P); assay type: in vivo, common chickweed (Stellaria media); details: AAH 320 g/ha
In short: as §2

lambsquarters [11] = test: Test Example 4: herbicidal effect by soil treatment (Table 19, symbol O); assay type: in vivo, lambsquarters (Chenopodium album); details: AAH 320 g/ha
In short: as §2

barnyard grass [12] = test: Test Example 3: herbicidal effect by foliage application, Wagner pot (Table 18, symbol H); assay type: in vivo, barnyard grass (Echinochloa crus-galli); details: 320 g/ha
In short: as §4

persian speedwell [13] = test: Test Example 4: herbicidal effect by soil treatment (Table 19, symbol R); assay type: in vivo, Persian speedwell (Veronica persica); details: AAH 320 g/ha
In short: as §2

blackgrass [14] = test: Test Example 4: herbicidal effect by soil treatment (Table 19, symbol J); assay type: in vivo, blackgrass (Alopecurus myosuroides); details: AAH 320 g/ha
In short: as §2

wild oat [15] = test: Test Example 5: herbicidal effect by foliage application, plastic box (Table 20, symbol I); assay type: in vivo, wild oat (Avena fatua); details: foliage application, AAH 320 g/ha, three weeks after application
In short: as §3

Italian ryegrass [16] = test: Test Example 4: herbicidal effect by soil treatment (Table 19, symbol K); assay type: in vivo, Italian ryegrass (Lolium multiflorum); details: AAH 320 g/ha
In short: as §2

windgrass [17] = test: Test Example 4: herbicidal effect by soil treatment (Table 19, symbol L); assay type: in vivo, windgrass (Apera spica-venti); details: AAH 320 g/ha
In short: as §2

rice flat sedge = test: Test Example 3: herbicidal effect by foliage application, Wagner pot (Table 18, symbol E); assay type: in vivo, rice flat sedge (Cyperus iria); details: 320 g/ha
In short: as §4

lambsquarters [18] = test: Test Example 5: herbicidal effect by foliage application, plastic box (Table 20, symbol O); assay type: in vivo, lambsquarters (Chenopodium album); details: foliage application, AAH 320 g/ha, three weeks after application
In short: as §3

redroot pigweed [19] = test: Test Example 5: herbicidal effect by foliage application, plastic box (Table 20, symbol N); assay type: in vivo, redroot pigweed (Amaranthus retroflexus); details: foliage application, AAH 320 g/ha, three weeks after application
In short: as §3

late watergrass = test: Test Example 2: herbicidal activity, application during weed generation under submerged conditions (Table 17, symbol A); assay type: in vivo, late watergrass (Echinochloa oryzicola); details: AAH 320 g/ha; application during weed generation, submerged conditions
In short: as §1

velvetleaf [20] = test: Test Example 4: herbicidal effect by soil treatment (Table 19, symbol M); assay type: in vivo, velvetleaf (Abutilon theophrasti); details: AAH 320 g/ha
In short: as §2

southern crabgrass [21] = test: Test Example 4: herbicidal effect by soil treatment (Table 19, symbol F); assay type: in vivo, southern crabgrass (Digitaria ciliaris); details: AAH 320 g/ha
In short: as §2

windgrass [22] = test: Test Example 5: herbicidal effect by foliage application, plastic box (Table 20, symbol L); assay type: in vivo, windgrass (Apera spica-venti); details: foliage application, AAH 320 g/ha, three weeks after application
In short: as §3

velvetleaf [23] = test: Test Example 5: herbicidal effect by foliage application, plastic box (Table 20, symbol M); assay type: in vivo, velvetleaf (Abutilon theophrasti); details: foliage application, AAH 320 g/ha, three weeks after application
In short: as §3

green foxtail [24] = test: Test Example 5: herbicidal effect by foliage application, plastic box (Table 20, symbol G); assay type: in vivo, green foxtail (Setaria viridis); details: foliage application, AAH 320 g/ha, three weeks after application
In short: as §3

redroot pigweed [25] = test: Test Example 4: herbicidal effect by soil treatment (Table 19, symbol N); assay type: in vivo, redroot pigweed (Amaranthus retroflexus); details: AAH 320 g/ha
In short: as §2

Cc1nn(C)c(=O)c(-c2c(-c3ccccc3OCC(F)(F)F)sc3ccccc23)c1O [1-118]
herbicidal effect rating, B: Japanese bulrush (Japanese bulrush): 0 (Herbicidal rate of 5% or less (almost no effect)) | I: wild oat, herbicidal effect rating (wild oat [1]): 3 (Herbicidal rate of 40% or more and less than 70%) | F: southern crabgrass, herbicidal effect (southern crabgrass [2]): 5 (Herbicidal rate of 90% or more (almost completely withered)) | R: persian speedwell, herbicidal effect (persian speedwell [3]): 5 (Herbicidal rate of 90% or more (almost completely withered)) | H: barnyard grass, herbicidal effect rating (barnyard grass [4]): 4 (Herbicidal rate of 70% or more and less than 90%) | herbicidal effect on D (Chinese sprangletop), rating 0-5 (Chinese sprangletop): 2 (Herbicidal rate of 20% or more and less than 40%) | herbicidal effect rating, C: oval-leafed pondweed (oval-leafed pondweed): 0 (Herbicidal rate of 5% or less (almost no effect)) | P: chickweed, herbicidal effect (chickweed [5]): 5 (Herbicidal rate of 90% or more (almost completely withered)) | H: barnyard grass, herbicidal effect (barnyard grass [6]): 2 (Herbicidal rate of 20% or more and less than 40%) | J: blackgrass, herbicidal effect (blackgrass [7]): 4 (Herbicidal rate of 70% or more and less than 90%) | K: Italian ryegrass, herbicidal effect (Italian ryegrass [8]): 4 (Herbicidal rate of 70% or more and less than 90%) | G: green foxtail, herbicidal effect rating (green foxtail [9]): 3 (Herbicidal rate of 40% or more and less than 70%) | P: chickweed, herbicidal effect rating (chickweed [10]): 3 (Herbicidal rate of 40% or more and less than 70%) | O: lambsquarters, herbicidal effect rating (lambsquarters [11]): 5 (Herbicidal rate of 90% or more (almost completely withered)) | herbicidal effect on H (barnyard grass), rating 0-5 (barnyard grass [12]): 4 (Herbicidal rate of 70% or more and less than 90%) | R: persian speedwell, herbicidal effect rating (persian speedwell [13]): 4 (Herbicidal rate of 70% or more and less than 90%) | J: blackgrass, herbicidal effect rating (blackgrass [14]): 3 (Herbicidal rate of 40% or more and less than 70%) | I: wild oat, herbicidal effect (wild oat [15]): 4 (Herbicidal rate of 70% or more and less than 90%) | K: Italian ryegrass, herbicidal effect rating (Italian ryegrass [16]): 0 (Herbicidal rate of 5% or less (almost no effect)) | L: windgrass, herbicidal effect rating (windgrass [17]): 3 (Herbicidal rate of 40% or more and less than 70%) | herbicidal effect on E (rice flat sedge), rating 0-5 (rice flat sedge): 2 (Herbicidal rate of 20% or more and less than 40%) | O: lambsquarters, herbicidal effect (lambsquarters [18]): 3 (Herbicidal rate of 40% or more and less than 70%) | N: redroot pigweed, herbicidal effect (redroot pigweed [19]): 5 (Herbicidal rate of 90% or more (almost completely withered)) | herbicidal effect rating, A: late watergrass (late watergrass): 3 (Herbicidal rate of 40% or more and less than 70%) | M: velvetleaf, herbicidal effect rating (velvetleaf [20]): 3 (Herbicidal rate of 40% or more and less than 70%) | F: southern crabgrass, herbicidal effect rating (southern crabgrass [21]): 1 (Herbicidal rate of 5% or more and less than 20%) | L: windgrass, herbicidal effect (windgrass [22]): 5 (Herbicidal rate of 90% or more (almost completely withered)) | M: velvetleaf, herbicidal effect (velvetleaf [23]): 5 (Herbicidal rate of 90% or more (almost completely withered)) | G: green foxtail, herbicidal effect (green foxtail [24]): 5 (Herbicidal rate of 90% or more (almost completely withered)) | N: redroot pigweed, herbicidal effect rating (redroot pigweed [25]): 5 (Herbicidal rate of 90% or more (almost completely withered))
